Experimental data taken from patent publication US9862720B2, “Inhibitors of the renal outer medullary potassium channel” (Merck Sharp & Dohme Corp., priority 2014, dated 2018).

How the values were obtained:
[1] = molecular target: T1, ROMK (Kir1.1) channel (Homo sapiens, UniProt P48048); assay: Thallium Flux Assay; assay type: cell-based
T1 sequence (P48048 1-391): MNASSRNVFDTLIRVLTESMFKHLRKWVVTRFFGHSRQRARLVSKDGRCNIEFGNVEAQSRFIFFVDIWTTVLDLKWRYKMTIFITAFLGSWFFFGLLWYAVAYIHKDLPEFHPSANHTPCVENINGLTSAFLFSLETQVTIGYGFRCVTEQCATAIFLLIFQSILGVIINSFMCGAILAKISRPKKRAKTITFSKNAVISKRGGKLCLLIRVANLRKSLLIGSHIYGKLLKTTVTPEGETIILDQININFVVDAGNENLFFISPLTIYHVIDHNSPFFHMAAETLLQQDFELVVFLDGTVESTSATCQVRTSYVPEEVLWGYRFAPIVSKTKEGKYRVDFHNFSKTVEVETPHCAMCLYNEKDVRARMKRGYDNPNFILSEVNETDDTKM
Experimental: A Thallium Flux Assay was performed on the compounds of the Examples. This assay has been described previously; see, e.g., PCT Published Application WO 2013/062900.

[2] = molecular target: T2, Kir1.1 (ROMK1) (Homo sapiens, UniProt P48048); assay: Electrophysiology Assay (whole cell voltage clamp, IonWorks Quattro); assay type: cell-based; settings: Chinese hamster ovary cells stably expressing Kir1.1; fractional block at voltage step to 0 mV; 6 min compound incubation
T2 construct: expressed in transfected cells
T2 sequence (P48048 1-391): T1 sequence (P48048 1-391)
Experimental: Blocking of Kir1.1 (ROMK1) currents was examined by whole cell voltage clamp (Hamill et. al. Pfluegers Archives 391:85-100 (1981) using the IonWorks Quattro automated electrophysiology platform (Molecular Devices, Sunnyvale, Calif.). Chinese hamster ovary cells stably expressing Kir1.1 channels were maintained in T-75 flasks in cell culture media in a humidified 10% CO2 incubator at 37° C. Prior to an experiment, Kir1.1 expression was induced by overnight incubation with 1 mM sodium butyrate. On the day of the experiment, cells were dissociated with 2.5 mL of Versene (Invitrogen 15040-066), a non-enzymatic cell dissociation reagent, for approximately 6 min at 37° C. and suspended in 10 mL of bath solution containing (in mM): 150 NaCl, 10 KCl, 2.7 CaCl2, 0.5 MgCl2, and 5 HEPES, at pH 7.4. After centrifugation, the cell pellet was resuspended in approximately 4.0 mL of bath solution and placed in the IonWorks instrument. The intracellular solution consisted of (in mM): 80 K gluconate, 40 KCl, 20 KF, 3.2 MgCl2, 3 EGTA, and 5 Hepes, at pH 7.4. Electrical access to the cytoplasm was achieved by perforation in 0.13 mg/mL amphotericin B for 4 min. Amphotericin B (Sigma A-4888) was prepared as a 40 mg/mL solution in DMSO.
Voltage protocols and current recordings were performed using the IonWorks HT software/hardware system. Currents were sampled at 1 kHz. There was no correction for liquid junction potentials. The test pulse, consisting of a 100 ms (millisecond) step to 0 mV (millivolts) from a holding potential of −70 mV, followed by a 100 ms voltage ramp from −70 mV to +70 mV, was applied before and after a 6 min compound incubation period. Test compounds were prepared by diluting DMSO stock solutions into the bath solution at 3× the final concentration and placed in the instrument in 96-well polypropylene plates. Current amplitudes were measured using the IonWorks software. To assess compound potency, the fractional block during the voltage step to 0 mV was calculated in Microsoft Excel (Microsoft, Redmond, Calif.), and dose-response curves were fitted with Igor Pro 4.0 (WaveMetrics, Lake Oswego, Oreg.). Although not required, a control compound is typically included to support that the assay is giving consistent results compared to previous measurements.

IC50 [1] | IC50 [2] | SMILES
267 nM |  | CC1=C(N2N=CC3(CCN(CC(O)c4ccc(-n5cnnn5)nn4)CC3)C2=O)COC1=O (single isomer, unassigned) [Example 4A, 8-(2-(6-(1H-tetrazol-1-yl)pyridazin-3-yl)-2-hydroxyethyl)-2-(4-methyl-5-oxo-2,5-dihydrofuran-3-yl)-2,3,8-triazaspiro[4.5]dec-3-en-1-one]
45.8 nM |  | CC1=C(N2N=CC3(CCN(CCc4ccc(-n5cnnn5)nn4)CC3)C2=O)COC1=O [Example 5, 8-(2-(6-(1H-tetrazol-1-yl)pyridazin-3-yl)ethyl)-2-(4-methyl-5-oxo-2,5-dihydrofuran-3-yl)-2,3,8-triazaspiro[4.5]dec-3-en-1-one]

Further lines, the compound ahead of its results:

SMILES | IC50 [1] | IC50 [2]
CC1=C(N2NCC3(CCN(C[C@H](O)c4ccc5c(c4C)COC5=O)CC3)C2=O)COC1=O [Example 1, (R)-8-(2-hydroxy-2-(4-methyl-1-oxo-1,3-dihydroisobenzofuran-5-yl)ethyl)-2-(4-methyl-5-oxo-2,5-dihydrofuran-3-yl)-2,3,8-triazaspiro[4.5]decan-1-one] | 68.4 nM | 33 nM
CC1=C(N2NCC3(CCN(C[C@H](O)c4ccc(-n5cnnn5)nc4)CC3)C2=O)COC1=O [Example 2A, (R)-8-(2-(6-(1H-tetrazol-1-yl)pyridin-3-yl)-2-hydroxyethyl)-2-(4-methyl-5-oxo-2,5-dihydrofuran-3-yl)-2,3,8-triazaspiro[4.5]decan-1-one] | 36.5 nM | 53 nM
CC1=C(N2NCC3(CCN(C[C@@H](O)c4ccc(-n5cnnn5)nc4)CC3)C2=O)COC1=O [Example 2B, (S)-8-(2-(6-(1H-tetrazol-1-yl)pyridin-3-yl)-2-hydroxyethyl)-2-(4-methyl-5-oxo-2,5-dihydrofuran-3-yl)-2,3,8-triazaspiro[4.5]decan-1-one] | 57.8 nM | 33 nM
CC1=C(N2N=CC3(CCN(C[C@H](O)c4ccc(-n5cnnn5)nc4)CC3)C2=O)COC1=O [Example 3A, (R)-8-(2-(6-(1H-tetrazol-1-yl)pyridin-3-yl)-2-hydroxyethyl)-2-(4-methyl-5-oxo-2,5-dihydrofuran-3-yl)-2,3,8-triazaspiro[4.5]dec-3-en-1-one] | 54.9 nM | 17 nM
CC1=C(N2N=CC3(CCN(C[C@@H](O)c4ccc(-n5cnnn5)nc4)CC3)C2=O)COC1=O [Example 3B, (S)-8-(2-(6-(1H-tetrazol-1-yl)pyridin-3-yl)-2-hydroxyethyl)-2-(4-methyl-5-oxo-2,5-dihydrofuran-3-yl)-2,3,8-triazaspiro[4.5]dec-3-en-1-one] | 57.1 nM | 
